From patent publication US6800297B2, “Porous COX-2 inhibitor matrices and methods of manufacture thereof” (Acusphere, Inc., priority 2000, dated 2004) come the findings set out here.

The data set can be described thus: In vitro dissolution of rofecoxib in T80/PBS. The following applies: after 1 hour; PBS containing 0.08% Tween 80, 200 mL; FIG. 2, FIG. 3. Type of data set: physicochemical. The procedure: Rofecoxib containing materials (either tablets, or bulk rofecoxib powder, or porous rofecoxib matrix powder) containing 20-31 mg of rofecoxib were added to 200 mL of 5% dextrose at room temperature in a 600 mL beaker. For bulk rofecoxib powder and porous rofecoxib matrix powder the resulting suspension was stirred for 5 minutes. For tablets (either marketed rofecoxib tablets (VIOXX®) or porous rofecoxib matrix tablet) the resulting suspension was stirred for 3-4 minutes beyond the time required for complete tablet disintegration. A sample of the suspension (containing 0.050-0.077 mg of rofecoxib) was then transferred to the dissolution vessel.
Dissolution studies for rofecoxib were conducted in PBS (phosphate buffered saline) containing 0.08% Tween 80 (T80/PBS). The dissolution vessel was a 600 mL beaker containing 200 mL of T80/PBS, and was stirred Samples were removed via pipet and centrifuged for 5 minutes at 10,000 rpm. Samples were analyzed by HPLC for rofecoxib. Control samples (for total rofecoxib concentration in the suspension vessel) were removed via pipet, and dissolved in acetonitrile, and the resulting solutions analyzed by HPLC for rofecoxib. […]

With `CS(=O)(=O)c1ccc(C2=C(c3ccccc3)C(=O)OC2)cc1` [rofecoxib, 4-[4-(methylsulfonyl)phenyl]-3-phenyl-2(5H)-furanone], the “percent dissolved (relative to total rofecoxib concentration in the suspension vessel)” value worked out at 41%.
